Data: patent US12581252B2, “Substituted pyrrolo[3,4-b]pyridines as PI3K-α inhibitors” (Relay Therapeutics, Inc., priority 2020, dated 2026)

These molecules were tested against H1047R PIK3CA enzyme (Homo sapiens, UniProt P42336, H1047R) (assay: ADP-Glo Biochemical PIK3CA Kinase Assay).
Sequence of H1047R PIK3CA enzyme (P42336 whole entry H1047R): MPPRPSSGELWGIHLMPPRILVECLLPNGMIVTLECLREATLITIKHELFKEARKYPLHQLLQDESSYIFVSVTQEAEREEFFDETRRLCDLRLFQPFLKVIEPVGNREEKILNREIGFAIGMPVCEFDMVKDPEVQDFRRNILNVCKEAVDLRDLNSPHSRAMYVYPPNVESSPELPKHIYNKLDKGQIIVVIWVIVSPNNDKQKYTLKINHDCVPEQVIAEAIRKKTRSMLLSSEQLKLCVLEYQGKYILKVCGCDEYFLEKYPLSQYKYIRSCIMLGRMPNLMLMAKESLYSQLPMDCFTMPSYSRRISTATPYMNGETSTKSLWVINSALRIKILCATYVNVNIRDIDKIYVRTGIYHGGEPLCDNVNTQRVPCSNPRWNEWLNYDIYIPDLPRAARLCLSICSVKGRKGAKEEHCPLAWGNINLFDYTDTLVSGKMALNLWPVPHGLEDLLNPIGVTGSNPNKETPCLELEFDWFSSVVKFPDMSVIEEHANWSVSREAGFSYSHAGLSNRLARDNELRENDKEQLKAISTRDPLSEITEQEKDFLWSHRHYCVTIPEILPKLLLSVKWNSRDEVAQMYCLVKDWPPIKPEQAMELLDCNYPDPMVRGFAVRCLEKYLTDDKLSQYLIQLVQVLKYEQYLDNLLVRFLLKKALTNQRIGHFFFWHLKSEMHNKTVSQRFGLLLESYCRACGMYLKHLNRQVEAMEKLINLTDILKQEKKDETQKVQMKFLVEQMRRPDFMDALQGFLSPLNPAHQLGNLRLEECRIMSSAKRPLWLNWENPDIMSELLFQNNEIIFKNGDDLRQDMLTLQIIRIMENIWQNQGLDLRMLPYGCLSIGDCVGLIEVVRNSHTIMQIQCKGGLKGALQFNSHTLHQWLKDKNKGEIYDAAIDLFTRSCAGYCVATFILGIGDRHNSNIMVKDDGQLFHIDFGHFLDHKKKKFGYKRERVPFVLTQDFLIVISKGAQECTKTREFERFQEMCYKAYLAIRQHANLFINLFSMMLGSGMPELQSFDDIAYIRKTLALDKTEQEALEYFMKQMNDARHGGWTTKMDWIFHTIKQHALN
Sequence of H1047R PIK3CA enzyme (P27986 whole entry partner): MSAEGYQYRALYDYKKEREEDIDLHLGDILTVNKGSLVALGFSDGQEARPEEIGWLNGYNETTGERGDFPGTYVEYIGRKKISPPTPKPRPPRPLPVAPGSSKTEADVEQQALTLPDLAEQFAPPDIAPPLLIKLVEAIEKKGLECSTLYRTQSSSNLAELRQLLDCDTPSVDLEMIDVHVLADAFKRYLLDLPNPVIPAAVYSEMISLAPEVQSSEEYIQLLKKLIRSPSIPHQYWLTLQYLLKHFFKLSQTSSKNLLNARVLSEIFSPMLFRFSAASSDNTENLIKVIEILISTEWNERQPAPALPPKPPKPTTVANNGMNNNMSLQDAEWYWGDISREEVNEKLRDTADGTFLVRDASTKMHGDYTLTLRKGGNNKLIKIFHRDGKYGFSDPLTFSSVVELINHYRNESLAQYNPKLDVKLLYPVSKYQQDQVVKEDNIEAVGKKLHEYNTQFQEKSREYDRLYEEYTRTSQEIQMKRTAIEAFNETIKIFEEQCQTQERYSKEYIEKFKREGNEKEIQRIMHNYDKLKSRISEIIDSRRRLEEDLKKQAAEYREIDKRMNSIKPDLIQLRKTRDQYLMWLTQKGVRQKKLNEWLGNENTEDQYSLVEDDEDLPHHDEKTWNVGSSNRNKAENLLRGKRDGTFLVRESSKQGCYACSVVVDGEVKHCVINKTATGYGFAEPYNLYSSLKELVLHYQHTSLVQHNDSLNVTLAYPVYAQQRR

Row | SMILES | IC50 [µM]
1 | CN1CCN(c2cc(NC(=O)c3cc(F)cc(C(F)(F)F)c3)c3c(n2)C(=O)NC3c2cc(F)ccc2Cl)CC1 (stereo not drawn) [Compound I-291] | 0.1 to 0.5
2 | O=C(Nc1cc(N2CC3CNCC3C2=O)cc2c1C(c1cc(F)ccc1Cl)NC2=O)c1cc(F)cc(C(F)(F)F)c1 (stereo not drawn) [Compound I-1291] | ≤ 0.1
3 | O=C1N[C@H](c2cc(F)ccc2Cl)c2c(NC(=O)N3CCC[C@@](O)(C(F)(F)F)C3)cccc21 (single isomer, unassigned) [Compound I-2113] | 10 to 100
4 | O=C1N[C@H](c2cc(F)ccc2Cl)c2c(NC(=O)N3CC4(CC4)c4cc(F)ccc43)cc(Br)cc21 (stereo in doubt) [Compound I-1510] | 1 to 10
5 | O=C(Nc1cc(-c2ccc3ncc(C(F)F)n3c2)cc2c1[C@H](c1cc(F)ccc1Cl)NC2=O)c1cc(F)cc(C(F)(F)F)c1 [Compound I-1937] | ≤ 0.1
6 | O=C1NC(c2cc(F)ccc2Cl)c2c(NC(=O)C3CNCCO3)cc(-c3ccc4ncnn4c3)cc21 (stereo not drawn) [Compound I-1900] | 10 to 100
7 | CC(C)(O)c1cc(NC(=O)c2cc(F)cc(C(F)(F)F)c2)c2c(n1)C(=O)N[C@@H]2c1cc(F)ccc1Cl [Compound I-271] | 1 to 10
8 | CN1CC(c2cc(NC(=O)c3cc(F)cc(C(F)(F)F)c3)c3c(c2)C(=O)NC3c2cc(F)ccc2Cl)CC1=O (racemic) [Compound I-1687] | ≤ 0.1
9 | CN1CCN(Cc2cc(NC(=O)c3cc(F)cc(C(F)(F)F)c3)c3c(c2)C(=O)NC3c2cc(F)ccc2Cl)CC1=O (stereo not drawn) [Compound I-1235] | 0.1 to 0.5
10 | O=C1N[C@@H](c2cc(F)ccc2Cl)c2c(NC(=O)N3C[C@H](O)C[C@@H](C(F)(F)F)C3)cccc21 (single isomer, unassigned) [Compound I-2237] | 1 to 10
11 | CC([C@H]1C[C@@H](O)CN1C(=O)Nc1cccc2c1C(c1cc(F)ccc1Cl)NC2=O)C(F)(F)F (single isomer, unassigned) [Compound I-2287] | 10 to 100
12 | C[S@](=O)(Cc1cc(NC(=O)c2cc(F)cc(C(F)(F)F)c2)c2c(c1)C(=O)N[C@@H]2c1cc(F)ccc1Cl)=NC#N (single isomer, unassigned) [Compound I-1563] | ≤ 0.1
13 | CC1(Cc2cc(NC(=O)c3cc(F)cc(C(F)(F)F)c3)c3c(c2)C(=O)N[C@@H]3c2cc(F)ccc2Cl)COC1 [Compound I-817] | 1 to 10
14 | Cc1ccccc1-n1[nH]c(=O)c2cccc(N)c21 [Compound I-64] | 1 to 10
15 | CS(=O)(=O)c1ccc(-c2cc(NC(=O)c3cc(F)cc(C(F)(F)F)c3)c3c(c2)C(=O)NC3c2cc(F)ccc2Cl)nc1 (stereo not drawn) [Compound I-1456] | ≤ 0.1

Continued, values first:

Row | IC50 [µM] | SMILES
16 | ≤ 0.1 | COc1ccc(-c2cc(NC(=O)c3cc(F)cc(C(F)(F)F)c3)c3c(c2)C(=O)NC3c2cc(F)ccc2Cl)nn1 (stereo not drawn) [Compound I-1438]
17 | 1 to 10 | O=C1N[C@@H](c2cc(F)ccc2Cl)c2c(NC(=O)N3C[C@@H](O)c4c3ccc(F)c4F)cccc21 (single isomer, unassigned) [Compound I-2313]
18 | 1 to 10 | Cc1ccccc1C1NC(=O)c2c(N3CCOCC3)ncc(NC(=O)c3cc(F)cc(C(F)(F)F)c3)c21 (stereo not drawn) [Compound I-253]
19 | 10 to 100 | CC(C)(C)N[C@@H]1NC(=O)c2cccc(NC(=O)c3cc(F)cc(C(F)(F)F)c3)c21 (single isomer, unassigned) [Compound I-2247]
20 | 10 to 100 | O=C1NC(c2cc(F)ccc2Cl)c2c(NC(=O)C3CCOc4ccccc43)cc(Br)cc21 (stereo not drawn) [Compound I-605]
21 | 10 to 100 | COc1cc(F)c(F)c(C(=O)Nc2cccc3c2C(c2ccccc2C)NC3=O)c1 (stereo not drawn) [Compound I-341]
22 | 1 to 10 | N#Cc1cccc(C(=O)Nc2cc(Br)cc3c2C(c2cc(F)ccc2Cl)NC3=O)c1 (stereo not drawn) [Compound I-522]
23 | 1 to 10 | O=C1NC(c2cc(F)ccc2Cl)c2c(NC(=O)c3cc(F)cc4cn[nH]c34)cccc21 (stereo not drawn) [Compound I-595]
24 | 1 to 10 | O=C1N[C@H](c2cc(F)ccc2Cl)c2c(NC(=O)N3C[C@@](O)(C(F)(F)F)c4ccccc43)cc(Cl)cc21 (single isomer, unassigned) [Compound I-2506]
